PubChem BioAssay (NCI)
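Following 48 hours of exposure in 96-well plates, responses at five concentrations were used to interpolate endpoints linearly. TGI: total growth inhibition.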

Tests used:
Experiment in all cases: NCI anticancer screen, dose series, 48 h
786-0 renal = system: 786-0 renal
A498 renal = system: A498 renal
A549 NSCLC = system: A549 NSCLC
ACHN renal = system: ACHN renal
CAKI-1 renal = system: CAKI-1 renal
CCRF-CEM leukemia = system: CCRF-CEM leukemia
COLO 205 colon = system: COLO 205 colon
DLD-1 colon = system: DLD-1 colon
DMS 114 small cell lung = system: DMS 114 small cell lung
DMS 273 small cell lung = system: DMS 273 small cell lung
EKVX NSCLC = system: EKVX NSCLC
HCC-2998 colon = system: HCC-2998 colon
HCT-116 colon = system: HCT-116 colon
HCT-15 colon = system: HCT-15 colon
HL-60(TB) leukemia = system: HL-60(TB) leukemia
HOP-18 NSCLC = system: HOP-18 NSCLC
HOP-62 NSCLC = system: HOP-62 NSCLC
HOP-92 NSCLC = system: HOP-92 NSCLC
HT29 colon = system: HT29 colon
IGROV1 ovarian = system: IGROV1 ovarian
K-562 leukemia = system: K-562 leukemia
KM12 colon = system: KM12 colon
KM20L2 colon = system: KM20L2 colon
LOX IMVI melanoma = system: LOX IMVI melanoma
LXFL 529 NSCLC = system: LXFL 529 NSCLC
M14 melanoma = system: M14 melanoma
M19-MEL melanoma = system: M19-MEL melanoma
MALME-3M melanoma = system: MALME-3M melanoma
MOLT-4 leukemia = system: MOLT-4 leukemia
NCI-H23 lung = system: NCI-H23 lung
NCI-H460 lung = system: NCI-H460 lung
NCI-H522 lung = system: NCI-H522 lung
OVCAR-3 ovarian = system: OVCAR-3 ovarian
OVCAR-4 ovarian = system: OVCAR-4 ovarian
OVCAR-5 ovarian = system: OVCAR-5 ovarian
OVCAR-8 ovarian = system: OVCAR-8 ovarian
RPMI-8226 leukemia = system: RPMI-8226 leukemia
RXF 393 renal = system: RXF 393 renal
SF-268 CNS = system: SF-268 CNS
SF-295 CNS = system: SF-295 CNS
SF-539 CNS = system: SF-539 CNS
SK-MEL-2 melanoma = system: SK-MEL-2 melanoma
SK-MEL-28 melanoma = system: SK-MEL-28 melanoma
SK-MEL-5 melanoma = system: SK-MEL-5 melanoma
SK-OV-3 ovarian = system: SK-OV-3 ovarian
SN12C renal = system: SN12C renal
SNB-19 CNS = system: SNB-19 CNS
SNB-75 CNS = system: SNB-75 CNS
SNB-78 CNS = system: SNB-78 CNS
SR leukemia = system: SR leukemia
SW-620 colon = system: SW-620 colon
TK-10 renal = system: TK-10 renal
U251 CNS = system: U251 CNS
UACC-257 melanoma = system: UACC-257 melanoma
UACC-62 melanoma = system: UACC-62 melanoma
UO-31 renal = system: UO-31 renal
NCI-H226 lung = system: NCI-H226 lung
XF 498 CNS = system: XF 498 CNS

Measured: TGI

CC1CCC2(OC1)OC1CC3C4CCC5CC(O)CCC5(C)C4CC(=O)OC3(C)C1C2C (configuration not stated)
not listed: NCI-H226 lung | XF 498 CNS
> 100 µM: all other assays above

COc1nc2c(nc(N)n2C2OC(CO)C(O)C(O)C2O)c(=O)[nH]1 (configuration not stated)
not listed: DMS 114 small cell lung | DMS 273 small cell lung | HCT-15 colon | MOLT-4 leukemia | OVCAR-5 ovarian | RPMI-8226 leukemia | SK-MEL-2 melanoma
> 100 µM: all other assays above

CCCCCC(/C=C/[C@@H]1[C@H]2CC(=O)O[C@H]2C[C@H]1N1CCOCC1)OC1CCCO1 (some centres not stated)
not listed: SN12C renal | SR leukemia | XF 498 CNS
> 100 µM: all other assays above
